Tested on: HeLa cells
Test: Colony formation assay, HeLa
Assay type: cell-based, human
Description: Cells were seeded in 6-well plates at low density: HeLa, MCF7, BT474, and PC9 cells at 1000, 2000, 2500, and 2000 cells/well respectively. Media containing the prescribed drugs or 0.1% DMSO was replaced every 3 days. Trastuzumab was used at 5 μg/ml. Gefitinib was used at 2 μM. YUKA1 was used at 50 or 100 μM. Doxycycline was used at 1 μg/ml for 3 days. After 7-42 days depending on the rate of cell growth, cells were fixed in 4% para-formaldehyde in phosphate-buffered saline for 10 minutes rocking at room temperature. They were incubated in 0.05% crystal violet in double-distilled water for 30 minutes rocking at room temperature, washed with water, and dried 24 hours before photographing. ColonyArea, a plugin for ImageJ software, was used for quantification (Guzman et al., 2014, PloS One 9:e92444). Unpaired, two-tailed student's t-test was used to determine significance using GraphPad Prism 6.0 software.
HeLa (FIG. 11A) and MDA-MB231 cells (FIG. 11B) were treated with DMSO, 5 μM KDMS-C70 or 50 or 100 μM YUKA1 in colony-formation assays. The tables in FIGS. 11C and 11D depict the quantification of experimental data.

## C=CCOc1c(CNn2cnnc2S)cccc1OC [YUKA1, 4-([2-(allyloxy)-3-methoxybenzyl]amino)-4H-1,2,4-triazole-3-thiol]
5 μM KDMS-C70 or 50 or 100 μM YUKA1
  growth in colony-formation assay: suppresses growth
two-week treatment
  number of colonies formed vs DMSO control: significantly reduced

Source: patent publication US20190151289A1, “Identification of Small Molecule Inhibitors of Jumonji AT-Rich Interactive Domain 1A (JARID1A) Histone Demethylase” (YALE UNIVERSITY, priority 2016, published 2019)
